Test results from patent US6855667B2, “Method for safening crops from the phytotoxic effects of herbicides by use of phosphorated esters” (priority 2000, dated 2005).

How the values were obtained:
Format in all cases: in vivo
[1] = test system: two corn varieties (Pioneer 3733 and Pioneer 3876); assay: Clomazone injury and dietholate safening of corn, both varieties together; settings: clomazone without the safening compound dietholate
Description: The compounds and compositions of the present invention were tested as water/surfactant solutions on two corn varieties (Pioneer 3733 and Pioneer 3876) and one variety (DPL 61) of cotton. In one embodiment, the safening compound and herbicidal compound were sprayed in admixture as a tank mix onto flats of corn or cotton seeds arranged in a randomized, block design. In another embodiment, the safening compound was applied to the plant seeds by placing the safening compound and the plant seeds in a screw-capped jar, which was rolled on its side until dispersion of the safening compound was complete. Optionally, a sticker compound, for example, without limitation, water or carboxymethylcellulose, can be used to adhere the safening compound to the plant seeds. The treated plant seeds were planted and immediately sprayed with herbicidal compound as described hereinabove. There were four replicates for each rate of application. The emerging corn and cotton plants were maintained in a growth chamber for 14 days after which time they were evaluated for percent injury as compared to an untreated control. […]

corn (Pioneer 3733) = assay: Clomazone injury and dietholate safening of corn, variety Pioneer 3733; settings: 14 days
Description: (§1) The compounds and compositions of the present invention were tested as water/surfactant solutions on two corn varieties (Pioneer 3733 and Pioneer 3876) and one variety (DPL 61) of cotton. In one embodiment, the safening compound and herbicidal compound were sprayed in admixture as a tank mix onto flats of corn or cotton seeds arranged in a randomized, block design. In another embodiment, the safening compound was applied to the plant seeds by placing the safening compound and the plant seeds in a screw-capped jar, which was rolled on its side until dispersion of the safening compound was complete. Optionally, a sticker compound, for example, without limitation, water or carboxymethylcellulose, can be used to adhere the safening compound to the plant seeds. The treated plant seeds were planted and immediately sprayed with herbicidal compound as described hereinabove. There were four replicates for each rate of application. The emerging corn and cotton plants were maintained in a growth chamber for 14 days after which time they were evaluated for percent injury as compared to an untreated control.

corn (Pioneer 3876) = assay: Clomazone injury and dietholate safening of corn, variety Pioneer 3876; settings: 14 days
Description: as §1

cotton (DPL 61) = assay: Clomazone injury and dietholate safening of cotton, growth chamber, percent injury vs untreated control; settings: for Percent Injury: 14 days
Description: as §1

CC1(C)CON(Cc2ccccc2Cl)C1=O [Clomazone, 2-[(2-chlorophenyl)methyl]-4,4-dimethyl-3-isoxazolidinone]
injury to corn (in words) [1]: significant injury | Percent Injury (corn (Pioneer 3733); clomazone 0.06 kg/ha alone): 2% | Percent Injury (corn (Pioneer 3733); clomazone 0.12 kg/ha alone): 28% | Percent Injury (corn (Pioneer 3733); clomazone 0.24 kg/ha alone): 75% | Percent Injury (corn (Pioneer 3876); clomazone 0.06 kg/ha alone): 1% | Percent Injury (corn (Pioneer 3876); clomazone 0.12 kg/ha alone): 15% | Percent Injury (corn (Pioneer 3876); clomazone 0.24 kg/ha alone): 59% | Percent Injury (cotton (DPL 61); clomazone 0.25 kg/ha alone): 46% | Percent Injury (cotton (DPL 61); clomazone 0.50 kg/ha alone): 77% | Percent Injury (cotton (DPL 61); clomazone 1.0 kg/ha alone): 91% | injury to cotton (in words) (cotton (DPL 61); clomazone without the safening compound dietholate): significant injury
